Results reported in ChEMBL document CHEMBL2029331, “Red fluorescent scaffold for highly sensitive protease activity probes” (Bioorg Med Chem Lett, 2012).
Active and inactive are the calls of the source. The rule behind the calls is not given here.

Tests used:
[1] = molecular target: Leucyl-cystinyl aminopeptidase (Homo sapiens) (UniProt Q9UIQ6); experiment: Activity of leucine aminopeptidase after 2.5 hrs by spectrophotometry
Caspase-3 (Homo sapiens) [2] = molecular target: T1, Caspase-3 (Homo sapiens) (UniProt P42574); experiment: Activity of caspase3 assessed as Kcat/Km ratio after 10 hrs by spectrophotometry relative to Ac-DEVD-AMC
T1 sequence (whole entry): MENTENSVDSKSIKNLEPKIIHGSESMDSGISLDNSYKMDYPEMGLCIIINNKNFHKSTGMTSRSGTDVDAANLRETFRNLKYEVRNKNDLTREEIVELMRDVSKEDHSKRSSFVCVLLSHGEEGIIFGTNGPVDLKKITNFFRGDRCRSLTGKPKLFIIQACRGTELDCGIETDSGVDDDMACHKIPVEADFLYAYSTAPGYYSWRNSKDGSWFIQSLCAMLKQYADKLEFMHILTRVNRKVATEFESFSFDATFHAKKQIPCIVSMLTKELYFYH

Caspase-3 (Homo sapiens) [3] = molecular target: T1, Caspase-3 (Homo sapiens); experiment: Activity of caspase3 assessed as SiR600 release by measuring increase in fluorescence intensity at 2 uM after 10 hrs by FRET assay relative to control

Sequence of Leucyl-cystinyl aminopeptidase (Homo sapiens) (Q9UIQ6 whole entry): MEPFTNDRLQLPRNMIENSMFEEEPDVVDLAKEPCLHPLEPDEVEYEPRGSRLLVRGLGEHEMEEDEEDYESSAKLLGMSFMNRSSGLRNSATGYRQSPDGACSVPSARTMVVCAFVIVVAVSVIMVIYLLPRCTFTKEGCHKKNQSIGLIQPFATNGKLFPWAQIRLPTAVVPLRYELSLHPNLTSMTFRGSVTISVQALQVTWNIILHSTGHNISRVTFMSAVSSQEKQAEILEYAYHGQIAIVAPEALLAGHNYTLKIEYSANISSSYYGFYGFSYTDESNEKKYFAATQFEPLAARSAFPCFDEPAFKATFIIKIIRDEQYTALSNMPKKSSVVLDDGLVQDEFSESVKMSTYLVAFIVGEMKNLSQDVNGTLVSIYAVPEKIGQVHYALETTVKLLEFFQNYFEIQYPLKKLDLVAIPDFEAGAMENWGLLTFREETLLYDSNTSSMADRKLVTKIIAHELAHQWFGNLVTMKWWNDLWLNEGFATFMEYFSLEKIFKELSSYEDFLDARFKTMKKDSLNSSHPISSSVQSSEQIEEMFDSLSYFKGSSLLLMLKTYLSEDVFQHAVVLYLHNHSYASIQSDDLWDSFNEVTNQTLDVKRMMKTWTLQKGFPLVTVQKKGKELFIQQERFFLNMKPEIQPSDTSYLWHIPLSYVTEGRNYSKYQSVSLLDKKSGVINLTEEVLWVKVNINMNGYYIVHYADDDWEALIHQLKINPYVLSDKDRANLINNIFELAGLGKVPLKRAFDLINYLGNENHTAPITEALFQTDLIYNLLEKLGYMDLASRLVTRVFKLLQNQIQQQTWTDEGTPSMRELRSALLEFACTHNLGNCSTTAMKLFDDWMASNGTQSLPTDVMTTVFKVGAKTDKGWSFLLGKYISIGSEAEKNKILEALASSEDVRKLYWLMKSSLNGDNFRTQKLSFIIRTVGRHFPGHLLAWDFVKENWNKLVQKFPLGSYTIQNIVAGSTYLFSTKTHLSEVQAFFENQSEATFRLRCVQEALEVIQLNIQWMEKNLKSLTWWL

Activity [1]: Active | fold change (FC) (Caspase-3 (Homo sapiens) [2]): 40 | fold change (FC) (Caspase-3 (Homo sapiens) [3]): 432
SMILES: Cc1ccccc1C1=C2C=CC(=N)C=C2[Si](C)(C)c2cc(NC(=O)[C@H](CC(=O)O)NC(=O)[C@@H](NC(=O)[C@H](CCC(=O)O)NC(=O)[C@H](CC(=O)O)NC(=O)OCc3ccccc3)C(C)C)ccc21
